Assay [1] concerns the target Wee1-like protein kinase (Homo sapiens, UniProt P30291). Briefly: G2/M cell cycle arrest in HeLa, late-stage follow-up, mechanism study for Wee1 degradation inhibitor project, FACS, panel member Wee1 Degradation (AID 2088).
Assay [2] deals with G2/mitotic-specific cyclin-B1 (Homo sapiens, UniProt P14635). Briefly: G2/M cell cycle arrest in HeLa, late-stage follow-up, mechanism study for Wee1 degradation inhibitor project, FACS, panel member Cyclin B Degradation (AID 2088).
The nature of assay [3]: Luminescence Cell-Based Dose Response to Identify Activators of Luciferase Translation or Activity in H4-C Neuroglioblastoma Cells. [Related pubchem assays: 1829 (Project Summary), 1814 (Primary HTS)]. The class given is functional.
Assay [4] in a line: Luminescence Cell-Based Dose Confirmation to Identify Activators of 5'UTR Stem-Loop Driven Alpha-Synuclein mRNA Translation in H4 Neuroglioblastoma Cells. [Related pubchem assays: 1829 (Project Summary), 1814 (Primary HTS)]. The class given is functional.
For assay [5], the target named is FAD-linked sulfhydryl oxidase ALR (Homo sapiens, UniProt P55789). Briefly: inhibitors of human ALR sulfhydryl oxidase, dose response, biochemical, H2O2 detection, luminescence, cherry-pick (AID 493248).
Assay [6] is described as follows: Luminescence Cell-Based Dose Response HTS to Identify Activators of Luciferase Translation or Activity in H4 […] Cells. [Related pubchem assays: 1829 (Project Summary), 1814 (Primary HTS)]. The class given is functional.
Assay [7] relates to H4. Nature of the assay: Luminescence Cell-Based Dose Response HTS to Identify Activators of 5'UTR Stem-Loop Driven Prion Protein mRNA Translation in H4 Neuroglioblastoma Cells. [Related pubchem assays: 1829 (Project Summary), 1814 (Primary HTS)]. The class given is functional. Conditions: Homo sapiens.
For assay [8], the target named is T1, Rac GTPase-activating protein 1 (Homo sapiens, UniProt Q9H0H5).
T1 sequence (Q9H0H5 whole entry): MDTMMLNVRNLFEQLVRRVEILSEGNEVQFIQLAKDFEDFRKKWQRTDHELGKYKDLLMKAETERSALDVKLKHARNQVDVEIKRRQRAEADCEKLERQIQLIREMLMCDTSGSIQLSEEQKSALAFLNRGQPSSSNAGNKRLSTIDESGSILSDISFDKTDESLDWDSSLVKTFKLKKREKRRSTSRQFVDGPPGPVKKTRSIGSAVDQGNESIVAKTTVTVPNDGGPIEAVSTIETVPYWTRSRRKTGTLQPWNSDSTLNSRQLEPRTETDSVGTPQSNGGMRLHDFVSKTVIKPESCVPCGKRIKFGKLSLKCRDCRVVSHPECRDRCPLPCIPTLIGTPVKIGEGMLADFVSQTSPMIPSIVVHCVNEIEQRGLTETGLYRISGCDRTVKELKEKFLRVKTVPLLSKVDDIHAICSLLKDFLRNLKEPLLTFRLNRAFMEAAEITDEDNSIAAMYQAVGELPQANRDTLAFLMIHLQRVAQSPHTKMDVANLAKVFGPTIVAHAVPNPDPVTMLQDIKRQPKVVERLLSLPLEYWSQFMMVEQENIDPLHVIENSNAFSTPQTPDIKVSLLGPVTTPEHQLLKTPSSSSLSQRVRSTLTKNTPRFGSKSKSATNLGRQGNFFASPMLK
Briefly: MgcRacGAP GTPase-activating activity inhibitors, confirmation, biochemical, ADP Hunter fluorescence, primary and confirmatory (AID 624330). The class given is functional.

Assay [9] can be described thus: Luminescence Cell-Based Dose Response to Identify Activators of 5'UTR Stem-Loop Driven Prion Protein mRNA Translation in H4-C Neuroglioblastoma Cells. [Related pubchem assays: 1829 (Project Summary), 1814 (Primary HTS)]. The class given is functional.
Assay [10] concerns the target Cyclin-dependent kinase 5/CDK5 activator 1 (Homo sapiens, UniProt Q00535). Nature of the assay: CDK5/p35 kinase inhibitors, dose response, biochemical, cherry-picked samples, set 2 (AID 504545).
For assay [11], the target named is Neurotensin receptor type 1 (Homo sapiens, UniProt P30989). The class given is functional.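 Also: Image-based confirmatory dose-response assay measuring agonist activity at NTR1; NTR1-expressing U2OS osteosarcoma cells imaged for beta-arrestin GFP spot formation; agonist potency where compounds increase beta-arrestin recruitment.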
Assay [12] in a line: Shn3 3'UTR reporter inhibitors, dose response, cell-based, Clone20 osteoblasts, firefly luciferase, cherry-picked (AID 624132).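 Also: firefly luciferase luminescence from reporter carrying the Shn3 3'UTR in osteoblasts.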 The class given is functional.
A short description of assay [13]: non-specific cell cytotoxicity, dose response, cytotoxicity control for PAX8 inhibitor project, plate reader, dry powder samples (AID 743021). The class given is functional, cell-based.
The target in assay [14] is T2, Short transient receptor potential channel 4 (Mus musculus, UniProt Q9QUQ5).
T2 sequence (Q9QUQ5 whole entry): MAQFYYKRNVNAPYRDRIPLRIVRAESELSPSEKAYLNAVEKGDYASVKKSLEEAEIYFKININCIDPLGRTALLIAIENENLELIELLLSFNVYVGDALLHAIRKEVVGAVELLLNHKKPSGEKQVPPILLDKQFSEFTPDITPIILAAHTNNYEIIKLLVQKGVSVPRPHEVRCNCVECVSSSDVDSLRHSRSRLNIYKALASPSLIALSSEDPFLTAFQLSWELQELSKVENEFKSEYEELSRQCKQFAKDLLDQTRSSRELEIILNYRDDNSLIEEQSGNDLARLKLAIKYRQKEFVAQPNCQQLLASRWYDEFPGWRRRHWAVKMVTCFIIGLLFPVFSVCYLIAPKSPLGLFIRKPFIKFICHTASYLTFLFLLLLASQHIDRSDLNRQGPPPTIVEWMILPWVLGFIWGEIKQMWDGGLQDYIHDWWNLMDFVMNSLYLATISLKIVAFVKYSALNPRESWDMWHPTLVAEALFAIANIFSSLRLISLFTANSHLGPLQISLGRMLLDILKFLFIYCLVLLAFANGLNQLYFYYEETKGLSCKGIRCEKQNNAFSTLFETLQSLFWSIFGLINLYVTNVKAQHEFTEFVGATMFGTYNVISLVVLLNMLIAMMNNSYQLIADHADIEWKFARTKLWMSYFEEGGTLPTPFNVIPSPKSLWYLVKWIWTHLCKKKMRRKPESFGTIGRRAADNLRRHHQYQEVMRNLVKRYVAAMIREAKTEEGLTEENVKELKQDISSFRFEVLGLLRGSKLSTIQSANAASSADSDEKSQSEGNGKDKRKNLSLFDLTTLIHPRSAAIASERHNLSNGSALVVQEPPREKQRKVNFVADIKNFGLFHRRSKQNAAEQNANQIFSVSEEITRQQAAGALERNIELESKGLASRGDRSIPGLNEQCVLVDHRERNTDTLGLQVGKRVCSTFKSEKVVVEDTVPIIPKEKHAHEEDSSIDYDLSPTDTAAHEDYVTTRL
Briefly: mouse TRPC4 channel activators, dose response, cell-based, HEK293 TRPC4/mu-opioid, Fluo-4 calcium (AID 434937). The class given is functional.

For assay [15], the system named is Vero. Nature of the assay: host cell cytotoxicity of antiviral hits, dose response, cytotoxicity control for West Nile virus antiviral project, secondary assay (AID 1650). The class given is functional. Conditions: Chlorocebus sabaeus.
Assay [16] relates to INS1. Nature of the assay: beta cell apoptosis inhibitors, cytokine rescue, dose response, luminescence, retest (AID 449756).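 Also: cell death triggered by IL-1 beta plus TNF-alpha plus IFN-gamma mixture; protective hits raise ATP signal compared with cytokine alone wells.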 The class given is functional, cell-based. Conditions: Rattus norvegicus.
For assay [17], the target named is Paired box protein Pax-8 (Homo sapiens, UniProt Q06710). Nature of the assay: inhibitors of PAX8-driven TPO luciferase reporter, dose response, RMG-I cells, cherry-pick (AID 687027).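 Also: luciferase reporter driven by Pax8 target thyroperoxidase promoter measured by SteadyGlo luminescence.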 The class given is functional, cell-based.
The nature of assay [18]: control 3'UTR Renilla luciferase suppression, dose response, counter-screen for Shn3 inhibitor project, cell-based, Clone20-Shn3RL, cherry-picked (AID 624133). The class given is functional. On the technique in general: A counterscreen serves to expose hits that act by an unwanted route or on another target.
Assay [19] has as its system Vero. Nature of the assay: West Nile virus antiviral activity, cell-based, CPE readout (AID 1621). The class given is functional. The note with it: Chlorocebus sabaeus.

Activity calls are given as the source filed them.

Chain of Paired box protein Pax-8 (Q06710 whole entry): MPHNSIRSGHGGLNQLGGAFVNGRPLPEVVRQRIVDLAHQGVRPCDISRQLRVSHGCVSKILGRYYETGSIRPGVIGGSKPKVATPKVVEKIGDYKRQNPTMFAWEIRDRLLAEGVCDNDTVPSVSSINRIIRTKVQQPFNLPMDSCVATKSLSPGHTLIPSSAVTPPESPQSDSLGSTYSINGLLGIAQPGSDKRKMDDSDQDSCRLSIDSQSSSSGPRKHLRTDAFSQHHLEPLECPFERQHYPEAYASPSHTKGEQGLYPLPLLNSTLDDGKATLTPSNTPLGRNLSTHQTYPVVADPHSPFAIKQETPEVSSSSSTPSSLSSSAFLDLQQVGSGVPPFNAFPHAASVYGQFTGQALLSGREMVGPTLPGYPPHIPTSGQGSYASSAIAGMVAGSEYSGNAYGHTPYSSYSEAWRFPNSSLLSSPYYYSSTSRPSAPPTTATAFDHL
Chain of G2/mitotic-specific cyclin-B1 (P14635 whole entry): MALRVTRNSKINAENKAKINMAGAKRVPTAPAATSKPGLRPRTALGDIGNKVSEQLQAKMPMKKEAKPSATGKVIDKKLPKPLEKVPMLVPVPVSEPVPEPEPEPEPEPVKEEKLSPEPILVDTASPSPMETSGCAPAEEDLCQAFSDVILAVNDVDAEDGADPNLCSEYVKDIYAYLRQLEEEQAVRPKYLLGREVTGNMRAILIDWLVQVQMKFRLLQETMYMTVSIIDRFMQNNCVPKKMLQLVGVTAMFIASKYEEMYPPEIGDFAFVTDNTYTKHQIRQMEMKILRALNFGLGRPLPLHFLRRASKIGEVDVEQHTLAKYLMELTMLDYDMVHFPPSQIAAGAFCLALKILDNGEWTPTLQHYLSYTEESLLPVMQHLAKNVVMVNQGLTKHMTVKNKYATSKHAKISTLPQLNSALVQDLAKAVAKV
Chain of Neurotensin receptor type 1 (P30989 whole entry): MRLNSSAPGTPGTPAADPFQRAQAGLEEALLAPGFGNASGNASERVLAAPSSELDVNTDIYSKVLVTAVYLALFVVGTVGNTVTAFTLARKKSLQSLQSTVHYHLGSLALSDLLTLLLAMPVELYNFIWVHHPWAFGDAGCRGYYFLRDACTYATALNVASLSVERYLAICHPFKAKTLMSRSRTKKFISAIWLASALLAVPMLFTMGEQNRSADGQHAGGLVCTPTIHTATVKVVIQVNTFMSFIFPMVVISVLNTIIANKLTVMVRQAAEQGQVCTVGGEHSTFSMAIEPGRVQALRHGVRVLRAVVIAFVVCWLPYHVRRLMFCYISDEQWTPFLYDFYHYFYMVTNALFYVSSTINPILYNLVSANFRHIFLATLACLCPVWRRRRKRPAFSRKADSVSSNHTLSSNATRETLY
Chain of FAD-linked sulfhydryl oxidase ALR (P55789 whole entry): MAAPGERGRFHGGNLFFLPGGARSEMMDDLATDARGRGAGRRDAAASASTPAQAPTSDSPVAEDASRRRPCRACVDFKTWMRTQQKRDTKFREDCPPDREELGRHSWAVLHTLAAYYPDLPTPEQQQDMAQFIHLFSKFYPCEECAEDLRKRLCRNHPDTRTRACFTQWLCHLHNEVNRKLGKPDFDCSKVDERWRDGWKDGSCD
Chain of Wee1-like protein kinase (P30291 whole entry): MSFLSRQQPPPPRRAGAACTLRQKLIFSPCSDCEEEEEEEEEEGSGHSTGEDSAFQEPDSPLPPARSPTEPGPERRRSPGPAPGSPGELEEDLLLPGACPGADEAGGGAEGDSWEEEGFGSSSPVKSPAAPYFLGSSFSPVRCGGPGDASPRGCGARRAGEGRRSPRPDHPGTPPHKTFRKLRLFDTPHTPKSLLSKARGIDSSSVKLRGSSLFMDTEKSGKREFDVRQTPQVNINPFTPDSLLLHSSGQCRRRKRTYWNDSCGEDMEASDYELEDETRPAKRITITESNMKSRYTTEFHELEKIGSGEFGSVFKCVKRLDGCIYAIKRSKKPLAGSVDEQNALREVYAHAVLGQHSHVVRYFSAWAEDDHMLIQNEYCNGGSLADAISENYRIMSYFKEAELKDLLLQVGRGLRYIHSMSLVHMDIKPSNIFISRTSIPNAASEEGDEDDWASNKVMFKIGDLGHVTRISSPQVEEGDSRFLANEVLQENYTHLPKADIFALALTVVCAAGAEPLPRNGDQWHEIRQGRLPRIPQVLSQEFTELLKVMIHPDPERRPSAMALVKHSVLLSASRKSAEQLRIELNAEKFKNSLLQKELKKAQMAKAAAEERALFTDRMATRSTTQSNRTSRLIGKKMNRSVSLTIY
Chain of Cyclin-dependent kinase 5/CDK5 activator 1 (Q00535 whole entry): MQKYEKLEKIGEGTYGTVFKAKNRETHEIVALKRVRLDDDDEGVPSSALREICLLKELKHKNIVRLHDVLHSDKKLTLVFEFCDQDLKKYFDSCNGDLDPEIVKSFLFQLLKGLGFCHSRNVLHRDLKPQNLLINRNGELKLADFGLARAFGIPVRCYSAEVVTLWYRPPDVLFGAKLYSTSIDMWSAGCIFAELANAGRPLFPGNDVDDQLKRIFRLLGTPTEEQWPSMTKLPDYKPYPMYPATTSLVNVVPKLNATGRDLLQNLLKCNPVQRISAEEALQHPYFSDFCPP
Chain of Cyclin-dependent kinase 5/CDK5 activator 1 (Q15078 whole entry, further chain): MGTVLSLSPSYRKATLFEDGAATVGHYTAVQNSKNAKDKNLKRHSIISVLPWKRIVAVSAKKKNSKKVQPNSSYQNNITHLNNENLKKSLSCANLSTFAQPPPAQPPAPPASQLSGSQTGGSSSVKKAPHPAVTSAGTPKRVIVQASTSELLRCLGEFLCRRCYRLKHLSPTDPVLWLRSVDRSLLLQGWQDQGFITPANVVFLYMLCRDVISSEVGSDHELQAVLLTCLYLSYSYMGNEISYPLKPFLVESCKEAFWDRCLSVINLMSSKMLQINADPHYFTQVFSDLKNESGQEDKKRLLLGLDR

As to `Cc1cc(O)nc(-n2nc(C)cc2NC(=O)c2ccc(Br)cc2)n1`, the EC50 in [1] and in [2] was > 49.7 µM (inactive) in each case.
`Oc1ccc(/C=N/Nc2ccc(C(F)(F)F)cn2)cc1`: the EC50 in assay [3] is 0.329 µM (active); in assay [4], 0.35 µM (active); in assay [6], < 0.1 µM (inconclusive); in assay [7], > 120 µM (not active); in [9] it was 0.998 µM (active). Also, the AC50 was 37.5 µM (active) in [5] and 19.9 µM (active) in [10]. Also, the concentration for half-maximal inhibition (IC50) in assay [8] is 28.9 µM (active).
Turning to `CC[C@@H](C(=O)[C@@H](C)[C@@H](O)[C@H](C)CCc1ccc(C)c(O)c1C(=O)O)[C@H]1O[C@](CC)([C@H]2CC[C@](O)(CC)[C@H](C)O2)C[C@@H]1C` [LASALOCID A SODIUM], the EC50 is 30.5 µM (inactive) in assay [11] and 5.96 µM (active) in [14]. In addition, the concentration at half-maximal activity (AC50) was 7.93 µM (active) in assay [12]; 40.7 µM (active) in [13]; 2.64 µM (active) in assay [16]; 3.52 µM (active) in [17]; 8.23 µM (active) in assay [18]. In addition, the cytotoxic concentration (CC50) in [15] was 19.4 µM (active). Besides, the IC50 in assay [19] is 8.3 µM (active).

In general, EC50 refers to the midpoint of the concentration-response curve. Usually AC50 stands for the concentration at which the activity in the assay is half-maximal. As usually defined, the IC50 is the point on the concentration scale where inhibition reaches its midpoint. The CC50 is the concentration at which the toxic effect on the cells reaches its halfway point.

(Values after ChEMBL document CHEMBL1201862, “PubChem BioAssay data set” (2004).)
